Experimental data as given in patent US10919896B2, “Preparation and uses of pyrimidinone derivatives” (Cancer Research Technology Limited, priority 2016, dated 2021).

target: Cdc7/ASK (Homo sapiens, UniProt O00311); experiment: Cdc7 Biochemical Assay Method 1: 384 well ELISA, whole protein substrate MCM2, antibody against Phospho MCM2 (S53); design: purchased; conditions: 2 μM ATP, read-out: Biochemical Method 1 (pIC50) (converted)
Experimental: This protocol describes a method for assaying Cdc7/ASK for activity. The assay is a 384 well ELISA assay, utilising a whole protein substrate (MCM2) and an antibody against Phospho MCM2 (S53). This site is thought to be specific to Cdc7/ASK phosphorylation and the assay has been validated using knockout mutants. Reagents • TBS: 25 mM Tris pH 7.2, 150 mM NaCl. (Dilute 10× stock by 1:10). • Wash Buffer: TBS+0.05% Tween 20. (Add 100 mL 1 M Tris pH 7.2, 120 mL 5 M NaCl and 2 mL 100% Tween 20 per 4 L). • Kinase Reaction Buffer: 50 mM Tris-HCl pH 8.5, 10 mM MgCl2, 1 mM DTT. (Dilute 10× stock by 1:10 and add 100 μL 1M DTT per 100 mL prior to assay). • Diethanolamine Buffer: 1 M diethanolamine pH 9.8, 0.5 mM MgCl2. • Stop Solution: 1 M NaOH. • MCM2 was expressed and purified in-house and used in the assay at a final assay concentration of 436 ng/well. • Cdc7/ASK is purchased from commercial suppliers and used in the assay at a final assay concentration of 37.97 ng/well or 20.63 nM. • ATP used as a final assay concentration of 2 μM. • Primary Antibody: Rabbit anti-Phospho MCM2 (S53 Antibody (BL3353)), is purchased from commercial suppliers at 0.2 mg/mL and used at a final assay concentration by diluting 1:800 in TBS. • Secondary Antibody: Anti-Rabbit/AP Antibody is supplied is purchased from commercial suppliers at 1 mg/mL and used at a final assay concentration by diluting 1:2000 in TBS. • Development Reagent: Dissolve one 20 mg PNPP tablet (Sigma, product […], 20 mg per tablet) per 20 mL diethanolamine Buffer (or one 5 mg PNPP tablet per 5 mL diethanolamine buffer). Cover in foil and leave shaking on a roller shaker at room temperature for up to an hour to dissolve. Methods • 1. Add 20 μL 1× working stock of Substrate (MCM2) in TBS to all wells of a clear, 384 well, Nickel-chelate microplate to give a final concentration of […]. Incubate at room temperature for at least 1 hour. Plates can be pre-coated for 1 hour and stored at 4° C. for up to 8 days. • 2. Wash with TBS+0.05% Tween 20 (80 μL×3). • 3. Add 2 μL 10× test compounds, including the positive control, in 40% DMSO/water to 'test' wells. Add 2 μL 40% DMSO/water to 'control' and 'blank' wells. The final DMSO concentration will be 4%. • 4. Add 13 μL CDC7/ASK Kinase (1.5× stock) in Kinase Reaction Buffer to 'test' and 'control' wells to give a final concentration of […]. Add 13 μL Kinase Reaction Buffer to 'blank' wells. • 5. Add 5 μL ATP (4× stock) in Kinase Reaction Buffer to all wells to give a final concentration of 2 μM. • 6. Incubate at room temperature for 90 minutes. • 7. Wash with TBS+0.05% Tween 20 (80 μL×3). • 8. Add 20 μL 1× working solution of Primary Antibody in TBS to all wells. Incubate at room temperature for 30 minutes. • 9. Wash with TBS+0.05% Tween 20 (80 μL×3). • 10. Add 20 μL 1× working solution of Secondary Antibody in TBS to all wells. Incubate at room temperature for 30 minutes. • 11. Wash with TBS+0.05% Tween 20 (80 μL×3). • 12. Add 20 μL 1× Development Reagent to all wells. • 13. Incubate at room temperature for 2 hours. Stop the reaction by adding 20 μL Stop Solution to all wells and record Absorbance on a Pherastar plate reader. Percentage inhibition values were calculated from absorbance values, using the no compound (DMSO) and no enzyme control values as 0% and 100% inhibition, respectively. IC50 determination was performed with ExcelFit software (IDBS) using curve fit 205. Z' factors were determined for each plate tested and were all above 0.5. Method 2

Cdc7/ASK, sequence (O00311 whole entry): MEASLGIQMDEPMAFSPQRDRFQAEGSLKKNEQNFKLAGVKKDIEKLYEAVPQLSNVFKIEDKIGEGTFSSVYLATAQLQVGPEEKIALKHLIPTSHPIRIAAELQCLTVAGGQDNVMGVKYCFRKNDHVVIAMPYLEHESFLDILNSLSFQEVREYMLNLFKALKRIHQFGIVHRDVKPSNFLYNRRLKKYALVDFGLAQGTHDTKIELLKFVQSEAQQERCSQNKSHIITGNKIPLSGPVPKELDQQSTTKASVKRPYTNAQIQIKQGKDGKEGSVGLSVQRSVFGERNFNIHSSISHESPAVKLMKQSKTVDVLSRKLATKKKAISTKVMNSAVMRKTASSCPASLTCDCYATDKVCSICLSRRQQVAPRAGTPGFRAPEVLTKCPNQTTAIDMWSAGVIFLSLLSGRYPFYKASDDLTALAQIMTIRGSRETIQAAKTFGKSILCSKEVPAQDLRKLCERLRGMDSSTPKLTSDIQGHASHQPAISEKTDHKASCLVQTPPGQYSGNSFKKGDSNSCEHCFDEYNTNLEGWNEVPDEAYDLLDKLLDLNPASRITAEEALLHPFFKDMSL
Cdc7/ASK, sequence (Q9UBU7 whole entry partner): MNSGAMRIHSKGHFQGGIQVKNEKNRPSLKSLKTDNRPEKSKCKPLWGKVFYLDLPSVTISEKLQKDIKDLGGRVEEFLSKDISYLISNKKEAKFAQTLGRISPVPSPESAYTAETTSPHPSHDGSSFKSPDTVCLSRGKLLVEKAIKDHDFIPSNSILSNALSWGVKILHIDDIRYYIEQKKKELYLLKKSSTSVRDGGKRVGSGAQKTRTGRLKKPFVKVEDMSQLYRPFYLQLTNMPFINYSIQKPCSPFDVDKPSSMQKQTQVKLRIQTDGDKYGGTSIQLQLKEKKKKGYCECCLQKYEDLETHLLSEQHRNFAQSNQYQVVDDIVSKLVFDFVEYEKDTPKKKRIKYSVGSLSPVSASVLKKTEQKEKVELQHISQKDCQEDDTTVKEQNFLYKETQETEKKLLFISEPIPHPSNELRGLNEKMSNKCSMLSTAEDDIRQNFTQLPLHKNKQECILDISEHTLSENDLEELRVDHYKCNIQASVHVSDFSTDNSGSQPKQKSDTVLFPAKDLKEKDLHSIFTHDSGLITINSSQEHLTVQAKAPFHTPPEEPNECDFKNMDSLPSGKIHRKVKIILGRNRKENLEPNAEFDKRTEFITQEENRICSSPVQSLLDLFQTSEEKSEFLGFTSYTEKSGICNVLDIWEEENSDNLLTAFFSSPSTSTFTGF

`O=C(c1csnn1)N1CCC(c2nc(-c3ccncc3)[nH]c(=O)c2Cl)CC1` [Compound 59] and `Cc1cc(C(=O)N2CCC(c3nc(-c4ccncc4)[nH]c(=O)c3Cl)CC2)no1` [Compound 69] are within 1.5-fold of each other in IC50: 2.57 nM for the first, 3.55 nM for the second.

Going from `CC(=O)c1ccc(C(=O)N2CCC(c3nc(-c4ccncc4)[nH]c(=O)c3Cl)CC2)cc1` [Compound 60] to `CC(=O)Nc1ccc(C(=O)N2CCC(c3nc(-c4ccncc4)[nH]c(=O)c3Cl)CC2)cc1` [Compound 62], the IC50 rises from 1.91 nM to 12 nM (6.3-fold).

`COc1ccc(S(N)(=O)=O)cc1C(=O)N1CCC(c2nc(-c3ccncc3)[nH]c(=O)c2Cl)CC1` [Compound 61] and `CS(=O)(=O)Cc1ccc(C(=O)N2CCC(c3nc(-c4ccncc4)[nH]c(=O)c3Cl)CC2)cc1` [Compound 73] are within 1.5-fold of each other in IC50: 6.17 nM for the first, 5.13 nM for the second.

Going from `CC(C)Oc1ccc(C(=O)N2CCC(c3nc(-c4ccncc4)[nH]c(=O)c3Cl)CC2)cc1` [Compound 63] to `CN(c1ccc(C(=O)N2CCC(c3nc(-c4ccncc4)[nH]c(=O)c3Cl)CC2)cc1)S(C)(=O)=O` [Compound 65], the IC50 rises from 3.24 nM to 5.89 nM (1.8-fold).

First: C[C@@H](NC(=O)OC(C)(C)C)C(=O)N1CCC(c2nc(-c3ccncc3)[nH]c(=O)c2Cl)CC1 [Compound 64]
Second: C[C@H](NC(=O)OC(C)(C)C)C(=O)N1CCC(c2nc(-c3ccncc3)[nH]c(=O)c2Cl)CC1 [Compound 71]
The IC50 of the first is 3.6-fold lower: 3.98 nM for the first, 14.5 nM for the second.

Going from `O=C(c1ccccc1Cl)N1CCC(c2nc(-c3ccncc3)[nH]c(=O)c2Cl)CC1` [Compound 66] to `Cc1cccc(C(=O)N2CCC(c3nc(-c4ccncc4)[nH]c(=O)c3Cl)CC2)c1` [Compound 72], the IC50 falls from 14.8 nM to 6.92 nM (2.1-fold).

Compared with `Cc1ncsc1C(=O)N1CCC(c2nc(-c3ccncc3)[nH]c(=O)c2Cl)CC1` [Compound 67], `O=C(c1cn[nH]c1)N1CCC(c2nc(-c3ccncc3)[nH]c(=O)c2Cl)CC1` [Compound 68] is 1.7-fold higher in IC50: 1.55 nM for the first, 2.69 nM for the second.

Going from `O=C(C1CC1(F)F)N1CCC(c2nc(-c3ccncc3)[nH]c(=O)c2Cl)CC1` (stereo not drawn) [Compound 70] to `CC(N)C(=O)N1CCC(c2nc(-c3ccncc3)[nH]c(=O)c2Cl)CC1` (stereo not drawn) [Compound 75], the IC50 falls from 15.8 nM to 9.12 nM (1.7-fold).

Going from `CCCC(NC(=O)OC(C)(C)C)C(=O)N1CCC(c2nc(-c3ccncc3)[nH]c(=O)c2Cl)CC1` (stereo not drawn) [Compound 74] to `CN1CCC(c2nc(-c3ccncc3)[nH]c(=O)c2Cl)CC1` [Compound 79], the IC50 falls from 245 nM to 10.2 nM (24-fold).

First: O=c1[nH]c(-c2ccncc2)nc(N2CCN(Cc3cccc(Cl)c3)CC2)c1Cl [Compound 80]
Second: COc1cccc(N2CCN(c3nc(-c4ccncc4)[nH]c(=O)c3Cl)CC2)c1 [Compound 113]
The IC50 of the first is 4.3-fold higher: 123 nM for the first, 28.8 nM for the second.

`CC(C)CCN1CCN(c2nc(-c3ccncc3)[nH]c(=O)c2Cl)CC1` [Compound 83] and `CC(C)N1CCN(c2nc(-c3ccncc3)[nH]c(=O)c2Cl)CC1` [Compound 86] are within 1.5-fold of each other in IC50: 166 nM for the first, 138 nM for the second.

First: CC1CN(c2nc(-c3ccncc3)[nH]c(=O)c2Cl)CC(C)O1 (stereo not drawn) [Compound 92]
Second: CC1CN(c2nc(-c3ccncc3)[nH]c(=O)c2Cl)CC(C)N1 (stereo not drawn) [Compound 108]
The IC50 of the first is 2.1-fold lower: 83.2 nM for the first, 174 nM for the second.

First: CC(C)CC1CN(c2nc(-c3ccncc3)[nH]c(=O)c2Cl)CCO1 (stereo not drawn) [Compound 93]
Second: COCCC1CN(c2nc(-c3ccncc3)[nH]c(=O)c2Cl)CCO1 (stereo not drawn) [Compound 99]
The IC50 of the first is 4.8-fold higher: 407 nM for the first, 85.1 nM for the second.

Going from `CCCC1COCCN1c1nc(-c2ccncc2)[nH]c(=O)c1Cl` (stereo not drawn) [Compound 95] to `NC(=O)C1CN(c2nc(-c3ccncc3)[nH]c(=O)c2Cl)CCO1` (stereo not drawn) [Compound 96], the IC50 falls from 67.6 nM to 42.7 nM (1.6-fold).

Going from `CN(C)C(=O)C1CN(c2nc(-c3ccncc3)[nH]c(=O)c2Cl)CCO1` (stereo not drawn) [Compound 97] to `CN(C)C(=O)CN1CCN(c2nc(-c3ccncc3)[nH]c(=O)c2Cl)CC1` [Compound 110], the IC50 rises from 200 nM to 661 nM (3.3-fold).

Going from `CC(C)(C)OC(=O)NCC1CN(c2nc(-c3ccncc3)[nH]c(=O)c2Cl)CCO1` (stereo not drawn) [Compound 98] to `NC(=O)C1CCN(c2nc(-c3ccncc3)[nH]c(=O)c2Cl)CC1` [Compound 100], the IC50 falls from 85.1 nM to 12 nM (7.1-fold).

In the case of `O=c1[nH]c(-c2ccncc2)nc(N2CCC(Cc3ccccc3)CC2)c1Cl` [Compound 102], the IC50 is reported as 52.5 nM.
